From ChEMBL document CHEMBL1201862, “PubChem BioAssay data set” (2004) come the findings set out here.

One may read the GI50 as the concentration giving 50% growth inhibition.

Molecules are shown by their SMILES.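 48-hour exposure; five concentrations; linearly interpolated endpoints. Abbreviation: GI50, concentration required for 50% inhibition of growth.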 Calls of active or inactive are those of the source. No stated cut-off is given here; in the data, active = GI50 up to about 1.1 µM and inactive = higher. A value given as a limit tells only on which side of the number the result lay.

Common to all, as to experiment: DTP human tumour cell line panel, 48 h
The subject of test [1] is SK-OV-3.
Test [2] deals with MDA-MB-435.
Test [3] relates to PC-3.
Test [4] concerns OVCAR-3.
Test [5] has as its system A498.
For test [6], the system named is COLO 205.
Test [7] has as its system KM12.
The subject of test [8] is BT-549.
Test [9] deals with UACC-257.
Test [10] relates to MOLT-4.
Test [11] relates to DU-145.
Test [12] deals with SK-MEL-5.
Test [13] has as its system SK-MEL-2.
Test [14] has as its system Hs-578T.
Test [15] deals with NCI/ADR-RES.
Test [16] has as its system CCRF-CEM.
Test [17] deals with LOX IMVI.
The subject of test [18] is RPMI-8226.
In test [19] the test system is K562.
For test [20], the system named is TK-10.

`COc1cc([C@@H]2c3cc4c(cc3[C@@H](OC3OC5COC(C)OC5C(O)C3O)[C@H]3COC(=O)[C@H]23)OCO4)cc(OC)c1O` (stereo partly specified): the GI50 in test [1] was 17.2 µM (inactive); in [2] it was 28.2 µM (inactive); in test [3], 0.661 µM (active); in test [4] it was 39.4 µM (inactive); in test [5], 7.14 µM (inactive); in test [6] it was 40.3 µM (inactive). Also, the GI50 was 18.6 µM (inactive) in test [7]; 2.4 µM (inactive) in [8]; 37.2 µM (inactive) in [9]; 0.547 µM (active) in [10]; 0.849 µM (active) in test [11]; 5.48 µM (inactive) in test [12]. Also, the GI50 is 21.7 µM (inactive) in test [13]; 0.735 µM (active) in test [14]; 65.5 µM (inactive) in test [15]; 1.4 µM (inactive) in test [16]; 2.74 µM (inactive) in test [17].

Turning to `CC(C)C1=C(Cc2ccccc2)C(=O)O/C1=C\c1cc(Cl)c(O)c(Cl)c1`, the GI50 in test [1] is 19.2 µM (inactive); in [2] it was 17.3 µM (inactive); in [3], 16.9 µM (inactive); in test [4], 14.2 µM (inactive); in test [5], 23.7 µM (inactive); in test [6] it was 17.4 µM (inactive). Besides, the GI50 was 17.3 µM (inactive) in test [18]; 17.4 µM (inactive) in [19]; 16.7 µM (inactive) in test [7]; > 10 µM (inactive) in [8]; 16.9 µM (inactive) in [9]; 21.2 µM (inactive) in [10]. In addition, the GI50 in test [11] was 16 µM (inactive); in test [12], 18.7 µM (inactive); in test [14], 21.8 µM (inactive); in test [15], 23.3 µM (inactive); in [16], 16 µM (inactive); in test [17], 17.4 µM (inactive). Moreover, the GI50 in test [20] was 26 µM (inactive).

As to `COC1(OC)CC(CO)(CNc2nc(N)nc(Cl)c2C=O)C1`, the GI50 in test [2] is 25.8 µM (inactive); in test [3], 24 µM (inactive); in test [4], 39.9 µM (inactive); in [5], > 100 µM (inactive); in test [6], > 100 µM (inactive); in test [18], > 100 µM (inactive). Further, the GI50 in test [19] was 5.74 µM (inactive); in test [7], 49 µM (inactive); in test [8] it was 48.5 µM (inactive); in [9] it was 27 µM (inactive); in test [10], 21.1 µM (inactive); in [11], 95.9 µM (inactive). Further, the GI50 in test [12] was > 100 µM (inactive); in test [14], 39.8 µM (inactive); in [15] it was 31 µM (inactive); in [16], 27.8 µM (inactive); in [17], 18.5 µM (inactive); in test [20], > 100 µM (inactive).

Regarding `O=c1ccn(C/C=C/c2ccccc2)c(=S)n1C/C=C/c1ccccc1`, the GI50 was > 100 µM (inactive) in test [1]; 60 µM (inactive) in [2]; 56.4 µM (inactive) in [3]; > 100 µM (inactive) in test [4]; > 100 µM (inactive) in test [5]; 54 µM (inactive) in [6]. The GI50 in [19] was 15.8 µM (inactive); in test [7] it was > 100 µM (inactive); in test [8], 68.2 µM (inactive); in test [9] it was 32.8 µM (inactive); in [10] it was 50.4 µM (inactive); in test [11], > 100 µM (inactive). The GI50 in [12] was 35.2 µM (inactive); in test [13], > 100 µM (inactive); in test [14] it was > 100 µM (inactive); in [15], > 100 µM (inactive); in test [16], 18.4 µM (inactive); in test [17], 28.6 µM (inactive). For the same molecule, the GI50 in [20] is > 100 µM (inactive).

Take `Cc1c(C)c2c(c(N)c1C#N)C(=O)N(CCc1ccccc1)C2=O`: the GI50 in test [2], in test [3], in test [4], in test [5], in [6] and in test [18] was > 100 µM (inactive) each time. Besides, the GI50 in [19] was > 100 µM (inactive); in test [7], > 100 µM (inactive); in [8], > 100 µM (inactive); in test [9] it was > 100 µM (inactive); in test [10], 72.6 µM (inactive); in test [11] it was > 100 µM (inactive). For the same molecule, the GI50 in [12], in [13], in [14], in test [15], in test [16] and in [17] was > 100 µM (inactive) in each case. The GI50 in test [20] was > 100 µM (inactive).

For `CC(C)C1OC23CCCCC2C(C#N)(C#N)C1(C#N)C(=N)O3` (stereo unspecified), the GI50 in test [1] was > 100 µM (inactive); in [2], 23.7 µM (inactive); in test [3], 30.4 µM (inactive); in [4], 22.7 µM (inactive); in [5], 25.3 µM (inactive); in test [6] it was 14.6 µM (inactive). Further, the GI50 in [19] is 8.61 µM (inactive); in [7], > 10 µM (inactive); in test [8], 18.8 µM (inactive); in test [9], 20.6 µM (inactive); in test [10] it was 23.1 µM (inactive); in test [11], 26.3 µM (inactive). For the same molecule, the GI50 in [12] was 16.8 µM (inactive); in test [13] it was 26 µM (inactive); in [14] it was 16.4 µM (inactive); in [15] it was 34.8 µM (inactive); in [16], 5.56 µM (inactive); in test [17] it was 20.1 µM (inactive). The GI50 in test [20] is 19.9 µM (inactive).

Consider `O=C(O)c1ccccc1Sc1ccc(C=C2NC(=S)N(c3ccccc3)C2=O)s1`, for which the GI50 in test [2] was > 100 µM (inactive); in test [3], > 100 µM (inactive); in [4], 47.5 µM (inactive); in [5], > 100 µM (inactive); in [6], 54.7 µM (inactive); in test [18], 41 µM (inactive). Also, the GI50 was 31.6 µM (inactive) in test [19]; > 100 µM (inactive) in test [7]; > 100 µM (inactive) in test [8]; > 100 µM (inactive) in [9]; 54.1 µM (inactive) in [10]; > 100 µM (inactive) in test [11]. In addition, the GI50 in test [12] was > 100 µM (inactive); in [13], 22.2 µM (inactive); in [14], > 100 µM (inactive); in test [15], > 100 µM (inactive); in test [17], > 100 µM (inactive); in test [20] it was 76.2 µM (inactive).

As to `O=C(O)CNc1ccc(Cl)c(Cl)c1`, the GI50 is 37.8 µM (inactive) in [1]; 26.3 µM (inactive) in test [2]; 24.6 µM (inactive) in [3]; 25.9 µM (inactive) in test [4]; 30.4 µM (inactive) in test [5]; 18.5 µM (inactive) in test [6]. In addition, the GI50 was 21.9 µM (inactive) in [18]; 25.1 µM (inactive) in test [19]; 19.1 µM (inactive) in test [7]; 36.7 µM (inactive) in test [8]; 26.7 µM (inactive) in test [9]; 29.6 µM (inactive) in test [10]. For the same molecule, the GI50 in test [11] is 29.4 µM (inactive); in test [12], 26.5 µM (inactive); in [14] it was 33.6 µM (inactive); in [15], 28.6 µM (inactive); in test [16], 31.6 µM (inactive); in test [17] it was 35.2 µM (inactive). Besides, the GI50 in test [20] is 20 µM (inactive).

`CN1CC(c2ccccc2)C(O)(C2(c3ccccc3)CN(C)CC(c3ccccc3)C2=O)C(c2ccccc2)C1` (stereo unspecified): the GI50 is > 100 µM (inactive) in test [2]; > 100 µM (inactive) in test [3]; > 100 µM (inactive) in test [4]; 91.2 µM (inactive) in test [5]; 93.3 µM (inactive) in [6]; > 100 µM (inactive) in test [18]. For the same molecule, the GI50 in test [19], in test [7], in test [8], in test [9], in test [10] and in test [11] was > 100 µM (inactive) in each case. For the same molecule, the GI50 in test [12] was > 100 µM (inactive); in test [13], > 100 µM (inactive); in test [14], 23.1 µM (inactive); in test [15] it was > 100 µM (inactive); in [17], > 100 µM (inactive); in test [20], > 100 µM (inactive).

As to `CN(C)CCC(C#N)(c1ccccc1)c1ccccc1`, the GI50 was > 100 µM (inactive) in test [1]; > 100 µM (inactive) in [2]; 87.3 µM (inactive) in test [3]; > 100 µM (inactive) in test [4]; 71.3 µM (inactive) in test [5]; 45.2 µM (inactive) in [6]. Moreover, the GI50 in test [18] was 24.9 µM (inactive); in test [19] it was 4.06 µM (inactive); in test [7], > 100 µM (inactive); in test [8], > 100 µM (inactive); in test [9], 24.4 µM (inactive); in test [10] it was 0.102 µM (active). The GI50 in test [11] is > 100 µM (inactive); in [12] it was 24.7 µM (inactive); in test [13] it was > 100 µM (inactive); in test [14], 93.5 µM (inactive); in test [15], 93.5 µM (inactive); in test [20], 60.1 µM (inactive).

As for `O=C(O)c1c(Cl)c(Cl)c(Cl)c(Cl)c1C(=O)Nc1ccc2cn[nH]c2c1`, the GI50 is > 100 µM (inactive) in test [1]; > 100 µM (inactive) in test [2]; > 100 µM (inactive) in test [3]; 65.2 µM (inactive) in [4]; > 100 µM (inactive) in [5]; > 100 µM (inactive) in [6]. Further, the GI50 is 37.4 µM (inactive) in test [18]; 97.3 µM (inactive) in test [19]; 62.1 µM (inactive) in test [7]; > 100 µM (inactive) in test [8]; > 100 µM (inactive) in [9]; 48 µM (inactive) in test [11]. The GI50 in test [12] was > 100 µM (inactive); in [13], > 100 µM (inactive); in [14] it was 39.7 µM (inactive); in test [15], > 100 µM (inactive); in test [20] it was > 100 µM (inactive).
